The results in this text go back to US12534456B2, “Heterocyclyl pyridines as novel fungicides” (Bayer Aktiengesellschaft, priority 2020, dated 2026).

A short description of one series: physchem. The format is physicochemical. The settings on record: Table 1, compounds of formula (I); method [a]: LC-UV, acidic range, 0.1% formic acid in water and acetonitrile. The protocol: Measurement of Log P values as provided herein was performed according to EEC directive 79/831 Annex V.A8 by HPLC (High Performance Liquid Chromatography) on reversed phase columns with the following methods: • ^[a]
If more than one Log P value is available within the same method, all the values are given and separated by “+”.
Lambda-max-values were determined using UV-spectra from 200 nm to 400 nm and the peak values of the chromatographic signals

The next series has as its system Alternaria alternata. As to the kind of experiment: Alternaria alternata in vitro cell test. The conditions noted are these: 120 h, 20 ppm of active ingredient, liquid culture with spores, 5 days incubation, spectrometric measurement of mycelium growth, read-out: efficacy (inhibition of fungal growth). It is filed as cell-based. The protocol:
(§1) B-5. Alternaria alternata In Vitro Cell Test • Solvent: DMSO • Culture medium: 14.6 g anhydrous D-glucose (VWR), 7.1 g Mycological Peptone (Oxoid), 1.4 g granulated Yeast Extract (Merck), QSP 1 liter • Inoculum: spores suspension • Fungicides were solubilized in DMSO and the solution used to prepare the required range of concentrations. […] A spore suspension of A. alternata was prepared and diluted to the desired spore density. Fungicides were evaluated for their ability to inhibit spore germination and mycelium growth in liquid culture assay. The compounds were added in the desired concentration to the culture medium with spores. After 5 days incubation, fungi-toxicity of compounds was determined by spectrometric measurement of mycelium growth. Inhibition of fungal growth was determined by comparing the absorbance values in wells containing the fungicides with the absorbance in control wells without fungicides.

A further series relates to Pyricularia oryzae. As to the kind of experiment: microbe, parasite or virus in culture. The conditions noted are these: 120 h, read-out: efficacy (inhibition of fungal growth). It is filed as cell-based.
Series [1] relates to Colletotrichum lindemuthianum. As to the kind of experiment: Colletotrichum lindemuthianum in vitro cell test. The format is cell-based. The conditions noted are these: 144 h, 20 ppm of active ingredient, liquid culture with spores, 6 days incubation, spectrometric measurement of mycelium growth, read-out: efficacy (inhibition of fungal growth). The protocol:
as §1, with “B-7. Colletotrichum lindemuthianum In” for “B-5. Alternaria alternata In”, “of C. lindemuthianum” for “of A. alternata”, “inhibit spores” for “inhibit spore”, “After 6” for “After 5”

For another series, the system named is Fusarium culmorum. Briefly: Fusarium culmorum in vitro cell test. The format is cell-based. The settings on record: 96 h, read-out: efficacy (inhibition of fungal growth). The procedure: B-9. Fusarium culmorum In Vitro Cell Test
• Solvent: DMSO • Culture medium: 14.6 g anhydrous D-glucose (VWR), 7.1 g Mycological Peptone (Oxoid), 1.4 g granulated Yeast Extract (Merck), QSP 1 liter • Inoculum: spore suspension
Fungicides were solubilized in DMSO and the solution used to prepare the required range of concentrations. The final concentration of DMSO used in the assay was ≤1%.
A spore suspension of F. culmorum was prepared and diluted to the desired spore density.
Fungicides were evaluated for their ability to inhibit spore germination and mycelium growth in liquid culture assay. The compounds were added in the desired concentration to the culture medium with spores. After 4 days incubation, fungi-toxicity of compounds was determined by spectrometric measurement of mycelium growth. Inhibition of fungal growth was determined by comparing the absorbance values in wells containing the fungicides with the absorbance in control wells without fungicides.

Another series deals with Septoria tritici. As to the kind of experiment: Septoria tritici in vitro cell test. The settings on record: Zymoseptoria tritici, 168 h; 20 ppm of active ingredient; liquid culture with spores, 7 days incubation, spectrometric measurement of mycelium growth; read-out: efficacy (inhibition of fungal growth). It is filed as cell-based. The procedure: B-8. Septoria tritici In Vitro Cell Test • Solvent: DMSO • Culture medium: 1 g KH2PO4 (VWR), 1 g K2HPO4 (VWR), 0.5 g Urea (VWR), 3 g KNO3 (Prolabo), 10 g saccharose (VWR), 0.5 g MgSO4, 7H2O (Sigma), 0.07 g CaCl2, 2H2O (Prolabo), 0.2 mg MnSO4, H2O (Sigma), 0.6 mg CuSO4, 5H2O (Sigma), 7.9 mg ZnSO4, 7H2O (Sigma), 0.1 mg H3BO3 (Merck), 0.14 mg NaMoO4, 2H2O (Sigma), 2 mg thiamine (Sigma), 0.1 mg biotine (VWR), 4 mg FeSO4, 7H2O (Sigma), QSP 1 liter • Inoculum: spore suspension Fungicides were solubilized in DMSO and the solution used to prepare the required range of concentrations. […] A spore suspension of S. tritici was prepared and diluted to the desired spore density. Fungicides were evaluated for their ability to inhibit spore germination and mycelium growth in liquid culture assay. The compounds were added in the desired concentration to the culture medium with spores. […] Inhibition of fungal growth was determined by comparing the absorbance values in wells containing the fungicides with the absorbance in control wells without fungicides.

Setting [2] is: 20 ppm of active ingredient, liquid culture with spores, 4 days incubation, spectrometric measurement of mycelium growth.

What is called chromatographic logP is a lipophilicity value derived from retention on a column. Lower therefore signals lower lipophilicity. As a reminder, the inhibition is the drop in the measured response relative to a control, in per cent.

Each structure is given as a SMILES string. Like-named read-outs stand apart in the source and are kept apart here.

The compound `Cc1ccc(CC2CON=C(c3cc(Cl)ncc3Oc3cccc(C(F)(F)F)c3)N2)c(C)c1` (racemic) [Compound I-001, (5RS)-3-{2-chloro-5-[3-(trifluoromethyl)phenoxy]pyridin-4-yl}-5-(2,4-dimethylbenzyl)-5,6-dihydro-4H-1,2,4-oxadiazine] registered a chromatographic logP in the series “physchem” of 4.56. For the same compound, the inhibition at 20 ppm (in the series with Alternaria alternata; with Pyricularia oryzae; in series [1]; with Fusarium culmorum) was 90 to 100% each time.
The compound `Cc1cc(C2=NOCC(Cc3ccc(Cl)cc3Cl)N2)c(Oc2cccc(C3CC3)c2F)cn1` (racemic) [Compound I-029, (5RS)-3-[5-(3-cyclopropyl-2-fluorophenoxy)-2-methylpyridin-4-yl]-5-(2,4-dichlorobenzyl)-5,6-dihydro-4H-1,2,4-oxadiazine] gave a chromatographic logP in “physchem” of 4.23. In addition, the inhibition at 20 ppm (in the series with Alternaria alternata; in the series with Pyricularia oryzae; in series [1]; in the series with Septoria tritici; in the series on Fusarium culmorum) was 90 to 100% in each case.
In the series “physchem”, `Cc1ccc(CC2CON=C(c3cc(C(F)(F)F)ncc3Oc3cccc(C(F)(F)F)c3)N2)c(C)c1` (racemic) [Compound I-034, (5RS)-5-(2,4-dimethylbenzyl)-3-{2-(trifluoromethyl)-5-[3-(trifluoromethyl)phenoxy]pyridin-4-yl}-5,6-dihydro-4H-1,2,4-oxadiazine] registered a chromatographic logP of 4.89. The inhibition at 20 ppm with Alternaria alternata is 90 to 100%; in the series on Pyricularia oryzae, 90 to 100%; in series [1], 90 to 100%; in the series with Septoria tritici, 90 to 100%; with Fusarium culmorum (setting [2]) it was 70 to 79%.
As for `Cc1ccc(CC2CON=C(c3ccncc3Oc3cccc(C(F)(F)F)c3)N2)cc1` (racemic) [Compound I-039, (5RS)-5-(4-methylbenzyl)-3-{3-[3-(trifluoromethyl)phenoxy]pyridin-4-yl}-5,6-dihydro-4H-1,2,4-oxadiazine], the chromatographic logP in the series “physchem” was 3.47. Also, the inhibition at 20 ppm is 90 to 100% with Alternaria alternata, 90 to 100% in series [1], 80 to 89% in the series on Septoria tritici and 90 to 100% with Fusarium culmorum.
For the compound `COc1ccc(C2NC(c3cc(Cl)ncc3Oc3cccc(C(F)(F)F)c3)=NOC2(F)F)cc1` (racemic) [Compound I-047, (5RS)-3-{2-chloro-5-[3-(trifluoromethyl)phenoxy]pyridin-4-yl}-6,6-difluoro-5-(4-methoxyphenyl)-5,6-dihydro-4H-1,2,4-oxadiazine], the chromatographic logP in “physchem” worked out at 4.14. Besides, the inhibition at 20 ppm in the series on Alternaria alternata fell in the range of 90 to 100%; in the series on Pyricularia oryzae, 90 to 100%; in series [1] it was 90 to 100%; in the series with Septoria tritici, 90 to 100%; in the series with Fusarium culmorum (setting [2]), 80 to 89%.
Take `Cc1ccc(C[C@@H]2CON=C(c3cc([C@@H]4CCOC4)ncc3Oc3cccc(C(F)(F)F)c3)N2)cc1` (racemic) [Compound I-058, (5RS)-5-(4-methylbenzyl)-3-{2-[(3SR)-tetrahydrofuran-3-yl]-5-[3-(trifluoromethyl)phenoxy]pyridin-4-yl}-5,6-dihydro-4H-1,2,4-oxadiazine]: the chromatographic logP in “physchem” came out at 3.78. Moreover, the inhibition at 20 ppm (with Alternaria alternata; with Pyricularia oryzae; in series [1]; with Septoria tritici; in the series on Fusarium culmorum) was 90 to 100% in each case.
In the case of `Cc1ccc(C2CON=C(c3cc(Cl)ncc3Oc3cccc(C(F)(F)F)c3)N2)s1` (racemic) [Compound I-097, rac-(5S)-3-[2-chloro-5-[3-(trifluoromethyl)phenoxy]-4-pyridyl]-5-(5-methyl-2-thienyl)-5,6-dihydro-4H-1,2,4-oxadiazine], the chromatographic logP in “physchem” was found to be 3.87. In addition, the inhibition at 20 ppm in the series with Alternaria alternata was in the range of 90 to 100%; with Pyricularia oryzae, 70 to 79%; in series [1] it was 90 to 100%; with Septoria tritici, 90 to 100%; in the series with Fusarium culmorum it was 90 to 100%.
In the case of `Cc1cc(C2CC2)ccc1CC1CON=C(c2cc(Cl)ncc2Oc2cccc(C(F)(F)F)c2)N1` (racemic) [Compound I-107, rac-(5R)-3-[2-chloro-5-[3-(trifluoromethyl)phenoxy]-4-pyridyl]-5-[(4-cyclopropyl-2-methyl-phenyl)methyl]-5,6-dihydro-4H-1,2,4-oxadiazine], the chromatographic logP in “physchem” came out at 4.88. Besides, the inhibition at 20 ppm was in the range of 80 to 89% in the series on Alternaria alternata, 90 to 100% in the series with Pyricularia oryzae, 90 to 100% in series [1] and 90 to 100% with Septoria tritici.
